Assay results taken from patent US20100152210A1, “PURINYL DERIVATIVES AND THEIR USE AS POTASSIUM CHANNEL MODULATORS” (NEURO SEARCH A/S/, priority 2007, published 2010).

Target: T1, hSK3 channels (Homo sapiens, UniProt Q9UGI6)
T1 construct: expressed in transfected cells; host or cells: HEK293
Assay: Whole-cell patch-clamp recording of SK3 current in HEK293 cells expressing hSK3 channels
Assay type: cell-based
Protocol: The ionic current through small-conductance Ca^2+-activated K^+ channels (SK channels, subtype 3) is recorded using the whole-cell configuration of the patch-clamp technique in a classic patch-clamp set-up using HEK293 tissue culture cells expressing hSK3 channels as described in e.g. WO 2006/100212.
The SC100 value determined is defined as the Stimulating Concentration required for increasing the baseline current by 100%. The below SC100 value is an indication of the SK3 activating properties of the compounds of the invention.

Cc1cc(C)n(-c2nc(Nc3ccc(Cl)cc3)c3ncn(Cc4ccccc4)c3n2)n1 [Compound 9.1, [9-Benzyl-2-(3,5-dimethyl-pyrazol-1-yl)-9H-purin-6-yl]-(4-chloro-phenyl)-amine]
The SC100 (Stimulating Concentration required for increasing the baseline current by 100%): 0.04 µM
